Data from a melting point compilation (Tetko et al.; mined from patent text by program, amines drawn as free bases though some values may be those of a salt).

| melting point [°C] | SMILES |
| --- | --- |
| 214 | CN(C)c1cccc2c1c(=O)n(C)c1c(-c3nc(C4CC4)no3)ncn21 |
| 265 | CC=Cc1nc2c(C(F)(F)F)cccc2c(O)c1C(=O)Nc1nccs1 |
| 200 to 201 | COc1cc2c(-c3ccnc(Cl)c3)c(CO)c(CO)cc2cc1OC1CCCC1 |
| 128 to 129 | COc1ccc(S(=O)(=O)N2CCc3cccc(-c4cccs4)c32)cc1 |
| 148 to 149 | Cn1c(C(F)(F)F)cc(=O)n(-c2ccc3snc(C(Cl)Cl)c3c2)c1=O |
| 167 | NC(=O)C1COc2c(F)cccc2O1 (stereo not drawn) |
| 253 to 255 | C[C@@H]1CNC[C@H](C)N1Cc1ccc(COc2cccc3c2CN(C2CCC(=O)NC2=O)C3=O)cc1 (stereo partly drawn) |
| 205 to 212 | CC(C)CC(NCC(=O)NOCc1ccccc1)C(=O)NC(Cc1ccc2ccccc2c1)C(=O)NC(C)C(N)=O (stereo not drawn) |
| > 260 | CCNc1cc(-c2c[nH]c(S)n2)ccn1 |
| 236 to 238 | N#Cc1c(-c2cccc(N)c2)cc(-c2ccccc2O)nc1NC(=O)C1CCCCC1 |
| 173 | N[C@H]1CC[C@H](Nc2cc(C(F)(F)F)nc3c(C(F)(F)F)cccc23)CC1 |
| 162 to 163 | CCNc1ccc(NS(=O)(=O)c2ccc(C)cc2)c(C)c1 |
| 82 to 85 | Fc1ccc(NC(=S)c2ccccn2)cc1 |
| 45 to 50 | CCOC(=O)NCCc1cccc(C(=O)C=CN(C)C)c1 |
| 223 to 225 | O=C(O)COc1cccc2c1CCc1sc(SCC(c3ccccc3)c3ccccc3)nc1-2 |
| 120 to 122 | CC(Nc1nc(NN)nc(Cl)c1-c1c(F)cccc1Cl)C(F)(F)F (stereo not drawn) |
| 205 to 207 | COc1ccc2c(c1)c(Cc1nc(-c3ccc([N+](=O)[O-])cc3)cs1)c(C)n2Cc1ccc(Br)cc1 |
| 82 to 84 | CC(C)(C)OC(=O)N1CSCC1C(=O)Nc1ccc(-n2nc(C(F)(F)F)cc2C(F)(F)F)cc1 (stereo not drawn) |
| 128 to 130 | CNCC(=O)N1Cc2cccc3c2N(CC3)c2ccccc21 |
| 93 to 95 | Cc1ccc(C)c(-c2nn(C(C)(C)C(=O)N(C)C)cc2C)c1 |
| 105 to 106 | Cc1cn(C(C)(C)C(N)=O)nc1-c1ccccc1 |
| 93 to 95 | CN(C=O)c1cc(F)ccc1C(=O)COC(=O)c1ccccc1 |
| 166 to 167 | NC(=O)CNC(=O)c1cccc(-c2ccc(F)c3cc(Cc4cc(F)cc(Cl)c4)sc23)c1 |
| 194 to 195 | O=C(O)CN(C(=O)CCCOc1ccc2c(c1)CN1CC(=O)NC1=N2)C1CCCCC1 |
| 166 to 170 | N#CSc1nc(Cl)ncc1Br |

| melting point [°C] | SMILES |
| --- | --- |
| 207 to 208 | CC1(C)CCC(C)(C)c2cc(CC#Cc3ccc(C(N)=O)cc3)ccc21 |
| 197 to 199 | CCOCc1nc2c(N)nc3cc(-c4cccnc4)ccc3c2n1CC(C)(C)O |
| 135 to 136 | N#CCCNC(=O)c1cccc(-c2ccc3c(c2)C(c2cc(Cl)ccc2Cl)CC3)c1 (stereo not drawn) |
| 125 to 129 | CCOC(=O)c1cccc2c1CCc1cc(O)ccc1S2 |
| > 300 | CN1CCN(c2nc(C=C3SC(=S)N(CC(=O)O)C3=O)cs2)CC1 |
| 165 to 167 | C/C(NCC(C)C)=C(\C#N)C(N)=S |
| 163 | Cc1c2c(nc3ccccc13)CCN(C(=O)c1ccc(Cl)cc1)CC2 |
| 81.5 to 82.5 | CCN(CC)CCNC(=S)N(CCS(=O)(=O)c1ccccc1)C(C)C |
| 103 to 104 | CC(C)(Cn1cncn1)C(=O)C=Cc1ccc2ccccc2c1 |
| 42 to 43 | C=C(COC(=O)Oc1ccc([N+](=O)[O-])cc1)C(=O)OCC |
| 150 to 151 | O=C1C(Cc2ccccc2)C(C(F)(F)F)Nc2ccccc2N1Cc1ccccc1 (stereo not drawn) |
| 199 to 200 | N#Cc1ccc(OCCCN2CCN(C(CC(=O)O)c3cccnc3)C(=O)C2=O)cc1 (single isomer, unassigned; (-)) |
| 99 to 101 | CCCCOCCOc1ccc(-c2ccc3c(c2)C=C(C(=O)O)CCN3CCCOC)cc1 |
| 140 to 141 | CC1=Nc2ccccc2N(Cc2ccccc2)C(=O)C1Cc1ccccc1 (stereo not drawn) |
| 183 | N#CC(CNC(=O)Nc1cncnc1)C(=O)O (stereo not drawn) |
| 71 to 75 | CCCCN(C)C(=O)CCCCCCCCCCSC1Cc2cc(O)ccc2C2CCC3(C)C(O)CCC3C12 (stereo not drawn) |
| 144 to 145 | O=C1N(Cc2ccccc2)Cc2cccnc2N1c1cccc([N+](=O)[O-])c1 |
| 99 to 101 | CC(COc1ccc(CC(N)=O)cc1Cl)NCC(O)c1cccc(Cl)c1 (stereo not drawn) |
| 142 to 146 | Cc1nn(CC(F)(F)COC(=O)CN)c(-c2ccc(F)cc2)c1-c1ccc2c(c1)NC(=O)CO2 |
| 157 to 159 | COc1nc(C)nc(NC(=O)NS(=O)(=O)c2ccccc2OC(F)(F)C(F)(F)F)n1 |
| 131 to 133 | O=C1Cc2cc(F)ccc2N1 |
| 280 | Cc1ccc2[nH]c3c(cc(-c4cccc(C=O)c4)c(=O)n3C)c2c1 |
| 109 to 113 | CCC1OC(Cn2cncn2)(c2ccc(Cl)cc2Cl)OC1C (stereo not drawn) |
| 108 to 110 | O=[N+]([O-])c1cnc(Sc2cncc(Cl)n2)s1 |
| 118 to 120 | COc1ccc(Oc2c(C)cc(CC(=O)O)cc2C)cc1C(C)C |

| melting point [°C] | SMILES |
| --- | --- |
| 149 to 151 | CS(=O)(=O)N1CCN(c2ccc(OC[C@H]3CCn4cc([N+](=O)[O-])nc4O3)cc2)CC1 |
| 242 to 244 | CCOC(=O)c1cc2c3ccccc3[nH]c(=O)n2n1 |
| 79.5 | COC(=O)[C@@H]1C[C@H](OC(=O)c2ccc([N+](=O)[O-])cc2)C[C@H]1C(=O)OCc1ccccc1 |
| 235 to 236 | O=C(Nc1cc(Cl)cc(Cl)c1)c1ccccc1SSc1ccccc1C(=O)Nc1cc(Cl)cc(Cl)c1 |
| 86.5 to 87.5 | c1csc(CNc2nccc3ccccc23)c1 |
| 62 to 68 | O=c1c2c(N3CCNCC3)cc(Cl)cc2n(Cc2ccccc2)c(=O)n1CCCc1ccccc1 |
| 214 to 217 | O=c1[nH]c2ccc(C3=NOC(CN4CCC(c5ccc(F)cc5)CC4)C3)cc2o1 (stereo not drawn) |
| 120 to 121 | CC(=O)NCC1CN(c2ccc3c(c2)C(=O)CCCC3)C(=O)O1 (stereo not drawn) |
| 73 to 74 | Cc1cc(N2CCC(CN3CCN(S(=O)(=O)c4ccc(Cl)cc4)CC3)CC2)nc(C)n1 |
| 102 to 106 | CCCC(=O)C1=C(O)CC(c2ccc(OC)c(NC(C)=O)c2)CC1=O (stereo not drawn) |
| 251 | NS(=O)(=O)c1cccc(-c2noc(-c3cnn4c(C(F)(F)F)cc(-c5cccc(C(F)(F)F)c5)nc34)n2)c1 |
| 179 to 180 | COc1ccc(CNc2nc(SC)ncc2C(O)c2nccn2C)cc1Cl (stereo not drawn) |
| 308 to 310 | COc1cccc2c1[nH]c(=O)n1c(=O)[nH]nc21 |
| 197 to 198 | O=C(OCC(O)CO)c1cc(F)ccc1Nc1ccnc2c(C(F)(F)F)cccc12 (stereo not drawn) |
| 98 to 100 | FC(F)C(F)(F)Oc1cccc(Nc2nccc(-c3cccc(OC(F)(F)F)c3)n2)c1 |
| 157 to 159 | CCOC(=O)CON1C(=O)C(=O)N(c2cc(Cl)ccc2C)C1=S |
| 132 to 135 | Cc1cc(Oc2c(F)cc(C(F)(F)F)cc2Cl)nn1C(N)=O |
| 229 to 230 | O=c1nc(-c2nccs2)sc2ccccc12 |
| 195 to 197 | CN(C)c1ccc2c(c1)C(=O)N(c1ccc3ccsc3c1)C2 |
| 168 to 169 | COc1ccc(SSc2ccc(OC)cc2C(=O)NC(CC(C)C)C(=O)O)c(C(=O)NC(CC(C)C)C(=O)O)c1 (stereo not drawn) |
| 206 to 208 | OC[C@H]1CCCC[C@H]1Nc1nccc(-n2nnc3ccccc32)n1 |
| 197 to 198 | O=C(C=Cc1ccc(O)c([N+](=O)[O-])c1)N(c1ccccc1)c1ccccc1 |
| 188 to 191 | CNCC(=O)NCC1Cc2cc(C)c3[nH]c(=O)ccc3c2O1 (stereo not drawn) |
| 95 to 97 | CCOC(=O)c1cccc2c1N(CCN1CC=C(c3c[nH]c4cc(F)ccc34)CC1)S(=O)(=O)N(C(C)C)C2 |
| > 130 | CCc1c(-c2ccc(O)cc2)c2c(COC)cc3cccc1n32 |

| melting point [°C] | SMILES |
| --- | --- |
| 85 | CSc1ccc(NC#N)c(-c2ccccc2)c1 |
| 277 to 278 | Cc1ccc(N2CCCN(c3cc[nH]c(=S)c3C#N)CC2)cc1[N+](=O)[O-] |
| 230 to 233 | COCCn1c(C)nc2c(N)nc3ccccc3c21 |
| 206 to 210 | O=C(O)CCCc1cc2cc(Cl)ccc2n1S(=O)(=O)c1cccc2ccccc12 |
| 108 to 109 | CCCc1nsc(N=C(Cl)N(C)C)c1C#N |
| 70 to 72 | C=CCc1ccccc1OCC(O)CNC1CCc2ccccc2C1 (stereo not drawn) |
| 219 to 220 | COc1ccc(C(O)(C2CC2)C2CC2)c2c1nc1n2CCCN1c1ccc(Cl)cc1Cl |
| 48 to 49 | Cc1cc([N+](=O)[O-])c(C)nc1OC(F)F |
| 258 to 260 | Cn1cc(C(=O)O)c(=O)c2cc3cc(F)c(N4CCNC(c5ccco5)C4)cc3nc21 (racemic) |
| 192 to 196 | Cc1ccccc1C(=O)CN1C(=O)C(NC(=O)Nc2cccc(C(=O)NO)c2)CN(C(=O)C(C)(C)C)c2ccccc21 (stereo not drawn) |
| 77 to 78 | C=Cc1ccc(CSCCC(=O)O)cc1 |
| 146 to 147 | CCCCOc1ccc2[nH]n(Cc3ccccc3)c(=O)c2c1 |
| 85 to 88 | O=C(O)CCC1CCN(CC(=O)OC2CCCCC2)CC1 |
| 181 to 182 | ON=C1CCc2cc(Cl)ccc21 |
| 104 to 106 | C=CCOc1ccc(CC(NC(O)OC(C)(C)C)C(=O)NC(C(=O)NC(C=C)C(=O)OC)C(C)C)cc1 (stereo not drawn) |
| 156 to 157 | COc1cc(-c2cc(O)c(SCc3ccccc3)c(=O)o2)cc(OC)c1OC |
| 76 to 81 | CCc1cnc(C2=NC(C)(C(C)C)C(=O)N2)c(C(=O)NCCCCCC(=O)O)c1 (stereo not drawn) |
| 19.3 | C=Cc1ccc(-c2ccccn2)cc1 |
| 158 to 160 | O=C(O)COc1ccc(SCc2ccc(OCc3ccc(F)cc3F)cc2)c2c1CCC2 |
| 198 to 199 | CCc1nn(CCOP(=O)(O)O)c(CC)c1Oc1cc(C#N)cc(C#N)c1 |
| 174 to 176 | O=CNNc1ccc(NC(=S)N2CCCCC2)cc1 |
| 140 to 141 | CCCC1(C2CCCC2)Cc2cc(OCCCC(=O)O)c(Cl)c(Cl)c2C1=O (stereo not drawn) |

| SMILES | melting point [°C] |
| --- | --- |
| CNCc1nc(C(=O)NC)c2n1-c1ccc(Cl)cc1C(c1ccccc1Cl)=NC2 | 270 to 273 |
